Measurements: US4276890A, “Tobacco smoking inhibitor” (priority 1979, dated 1981)
Several values for one entry are separate records, joined by “and”; a condition that tells them apart may be missing. Equal entries are not always repeated.

How the values were obtained:
[1] = system: tobacco consumption of habitual smokers; assay: General observations of treatment on tobacco consumption and subjective effects; assay type: in vivo, human (test subjects
Excerpt: In a preferred embodiment, finely divided ethyl maltol is distributed in a chewing gum base, which when chewed by the subject, results in a gradual release of ethyl maltol into the oral cavity. When administered in appropriate amounts over a period of several days, there results a gradual decrease in the number of cigarettes smoked and the length of time they are smoked. […] Reductions in the frequency and quantity of smoking have been observed in test subjects who were unaware that their smoking behavior was monitored. […] Subjectively, test subjects experience a reduced desired to smoke, tend to neglect the opportunities to light up a cigarette and tend to leave cigarettes unsmoked in the ashtray after a few puffs. The effect is sufficiently subtle that a smoker is sometimes unaware that their tobacco consumption rate was decreased until such point as the lowered consumption rate becomes obvious. For smokers sincerely desiring to reduce or eliminate their smoking, the effect of the treatment is most gratifying. However, for smokers who are not psychologically committed to giving up smoking, the effects may be alarming. It is of course, possible to override the effects of the treatment by conscious effort to smoke at the pre-treatment rate.
Smoking behavior is complex and includes cigarette, pipe and cigar smoking. Both from the standpoint of habituation and of health hazard, cigarette smoking is considered to be the most serious. It is contemplated that the treatment method described herein will be effective to inhibit all forms of smoking behavior and combinations thereof, involving the consumption of tobacco. For convenience, the ensuing discussion focuses on cigarette smoking, as exemplary of smoking behavior in general. Tobacco consumption is a function the number of cigarettes smoked and the proportion of each cigarette smoked. Reduction of consumption is measured by comparison with a smoker's pretreatment consumption rate. All data used herein are expressed as percent reduction, i.e., the differential between pretreatment and current smoking consumption rate divided by the pretreatment rate, times 100. All rates are calculated to take into account both the number of cigarettes smoked and the proportion of each smoked.
Duration of treatment may be as little as ten days, preferably 20 to 30 days. As might be expected with a complex behavior such as smoking, where psychological and social factors play a major role in addition to individual variations in nicotine susceptibility and responsiveness to gamma pyrone, the rate of smoking reduction during treatment is highly variable. Typically, a gradual reduction to about 50% to the pretreatment rate is observed over the first four to six days. Frequently, little or no reduction is observed for the first two days, although occasionally a dramatic reduction is observed almost immediately. In the ensuing seven to ten days, further reductions, typically 70 to 100%, are observed. Reduction below the 50% level in the first 3-5 days is sometimes accompanied by the physiological (but not psychological) symptoms of nicotine withdrawl, such as vertigo, alimentary distress, diuresis, scotoma and disorientation. Such symptoms have never been observed in non-smoking control subjects using the same gamma pyrone dosages. […] The entire course of treatment is therefore extended somewhat, preferably to about 20 to 30 days total. […]

smoking level of smokers = assay: Daily rates of smoking reduction (Example 5, Table II; comparison with placebo groups of Example 6); assay type: in vivo, human (volunteer smokers); settings: for reduction in smoking level: 1,000 mg/day, eight slowly dissolving lozenges, individual subjects
Method: Subjects who participated had prior knowledge of the purported effect of the treatment. They were asked to test a new dosage form and told that a "cure" was not necessarily to be expected in this test. The dosage was 1,000 mg/day of ethyl maltol divided over eight pieces of slowly dissolving lozenges, made essentially as described supra. Subjects administered their own dosage without supervision. The tests were designed and supervised by the inventor but carried out by intermediaries, in order to maximize the opportunity for objective evaluation of symptoms, and to minimize any possibility of investigative bias influencing the results. (True double blind tests are impossible because the gamma pyrone flavor is distinctive and virtually impossible to mask). Subjects were all in generally good health, and were selected to represent a variety of ages, occupational stresses, and personal life styles.
Levels of tobacco consumption were calculated taking into account the number of cigarettes smoked and the proportions smoked. They are expressed as percent reduction from the pretest smoking level.
During the same time period that the studies in Example Five were conducted, two groups of smokers were administered a placebo dosage comprising the same basic candy lozenge, but lacking any gamma pyrone and containing ascorbic and citric acids to impart a sharp, medicinal flavor.
This conclusion is further substantiated by analysis of variance. For such analysis, individual tests that were either incomplete or which presented unusual circumstances were discarded. Results from placebo groups one and two were pooled. The average percent reduction in smoking is plotted in FIG. 1, for the treatment and the placebo groups.

[2] = system: spontaneous motor activity; settings: mice; relative to maltol; cited from earlier work
mice = settings: cited from earlier work
[3] = Volatility and storage stability; assay type: physicochemical
Method: The troches were made essentially by conventional candy making techniques. The polysaccharide and starch were first dry blended to substantial uniformity. About 3-4% by weight of water was added to the dry powder to form a thick paste. This paste was then heated to produce a uniform viscous melt. Maltol or ethyl maltol were added to this melt as saturated solutions in boiling water. The water solubility of the gamma pyrones is somewhat limited. For example, one gram of ethyl maltol requires 6 ml of water at 100° C. to dissolve completely. Since the water content of the mixture must be kept low, the amount of ethyl maltol which can be incorporated is about 3-4%, and preferably about 1% by weight of the troche. […] Alternatively, the entire process can be carried out in a suitable pressure apparatus.
A refined, bland chewing gum base, obtained from Adams Sour Apple gum, (Warner-Lambert, Inc., Morris Plains, N.J.) was heated to 45° C. in a 100 gram batch. Ethyl maltol, 300 to 400 mesh, 6.66 grams, was added to the chewing gum base with thorough mixing to provide an even distribution of particles throughout the mass. The mass was then rolled into individual 3 gram sticks and allowed to cool. Alternatively, the mass was rolled as a single thin rectangular slab, allowed to cool, then cut into 3 gram sticks. […] Each 3 gram stick contains 200 mg of ethyl maltol.

rat brain cortex slices = settings: in vitro; cited from earlier work

CCc1occc(=O)c1O [ethyl maltol, 3-hydroxy-2-ethyl-4-pyrone]
tobacco consumption of habitual smokers ([1]; appropriate dosage levels and rates): significantly reduces the tobacco consumption of habitual smokers
onset of reduced cigarette consumption ([1]; day of treatment): about the second or third day of treatment
symptoms of nicotine withdrawal ([1]; treatment over several days): does not appear to be accompanied by the typical symptoms of nicotine withdrawal
reduction in smoking level (smoking level of smokers; Day 1): 10%
reduction in smoking level (smoking level of smokers; Day 2): 5% and 15% and 10% and 30% and 20%
reduction in smoking level (smoking level of smokers; Day 3): 10% and 20% and 5% and 40% and 60% and 30% and 15% and 45%
reduction in smoking level (smoking level of smokers; Day 4): 40% and 50% and 10% and 65% and 5% and 75% and 70% and 30%
reduction in smoking level (smoking level of smokers; Day 5): 30% and 80% and 10% and 85% and 60% and 90% and 50% and 35% and 95%
reduction in smoking level (smoking level of smokers; Day 6): 60% and 95% and 20% and 15% and 50% and 70% and 25%
reduction in smoking level (smoking level of smokers; Day 7): 50% and 40% and 20% and 90% and 65% and 85% and 30% and 45%
reduction in smoking level (smoking level of smokers; Day 8): 70% and 55% and 40% and 75% and 15% and 90% and 50%
reduction in smoking level (smoking level of smokers; Day 9): 80% and 70% and 20% and 65% and 95% and 90%
reduction in smoking level (smoking level of smokers; Day 10): 85% and 90% and 30% and 70% and 80%
discontinuation (smoking level of smokers; subject 10, after day 5, "beer tasted funny"): Discontinued
spontaneous motor activity (in words) [2]: also inhibitory, but somewhat less potent
acute LD50 (mice): 910 mg per kg
volatility ([3]; especially at elevated temperatures): volatile, especially at elevated temperatures
storage loss ([3]; unwrapped gum, room temperature): storage loss of ethyl maltol due to sublimation at room temperature
oxygen intake by rat brain cortex slices (rat brain cortex slices): not affected
